Source: US20140255451A1, “Implantable Medical Device Comprising A Macrocyclic Triene Lactone Drug And Minimal Antioxidant Stabilizer And Method Of Fabrication” (ABBOTT CARDIOVASCULAR SYSTEMS INC., priority 2013, published 2014)

Assay: Decrease in BHT content on a stent due to each manufacturing step (FIG. 1)
Type: physicochemical
Conditions: for reduction of the amount of BHT present in the drug reservoir layer: everolimus/BHT Xience V stent
From the text: FIG. 1 is a graph showing the decrease in BHT content on a stent due to each step in the manufacturing process in which a macrocyclic triene lactone and BHT are present.
For example, with regard to the above-mentioned Xience V stent, the process steps for coating the stent include spray coating a drug reservoir layer solution comprising everolimus and BHT onto a stent, which includes a primer layer, then drying the coated stent at an elevated temperature, mounting the stent on a delivery catheter and, finally, sterilizing the mounted stent/catheter. […] FIG. 1 relates to a stent comprising everolimus as the macrocyclic triene lactone and BHT as the antioxidant stabilizer but it is understood that similar if not identical results would be observed if a different macrocyclic triene lactone were used with BHT. Likewise it is expected that similar results would be obtained in terms of the magnitude of the effect at each step of a different antioxidant stabilizer were used.
Calculation of the proper amount of BHT to include with everolimus on a stent to arrive at a finished catheter/stent product that has the desired amount of residual BHT, i.e., about 0.001% to about 0.01% w/w based on the weight of everolimus on the stent, can be accomplished in two ways. At one extreme is stoichiometric reduction in the amount of BHT on the stent as the fabrication steps progress. In this approach, the amount of BHT drops by a constant amount at each fabrication step independent of the starting amount of BHT present. At the other extreme is a percentage drop where amount of the BHT decreases by the same percentage in each fabrication step, likewise independent of starting amount of BHT. Table 1 exemplifies these extremes compared to the known loss of BHT using the current […] stent and everolimus, which contains 0.20% (w/w) of BHT based on the weight of everolimus.
Thus, the fabrication process shown in FIG. 1 affords a drop in the amount of BHT from 0.2% in the starting material down to approximately 0.044% in the finished product. To achieve a final amount of BHT that is between the presently preferred […] and 0.01%, assuming the same proportional decrease in the amount of BHT, a starting amount in the coating solvent would be about 0.0455% (w/w) or less. On the other hand, assuming the same absolute decrease in the amount of BHT present in the finished product (stoichiometric loss), would require something less than about 0.166% (w/w) BHT in the coating solvent. Of course, a BHT reduction process that is neither stoichiometric nor proportional is possible, in which case the starting amount of BHT on the stent would be between the two extremes. It is clear, however, that beginning with about 0.0166% (w/w) BHT based on everolimus would in all instances result in a finished product have less that 0.01% (w/w) of BHT, an amount that would for all intents and purposes result in an insignificant exposure of a patient to the antioxidant.

reduction of the amount of BHT present in the drug reservoir layer (catheter mounting step): about 1% | reduction of the amount of BHT present in the drug reservoir layer (drying step at elevated temperature): about 9% | reduction of the amount of BHT present in the drug reservoir layer (ethylene oxide sterilization step): about 64% | additional reduction of BHT (follow-up ethylene oxide sterilization on the already sterilized catheter/stent): 30% | reduction of the amount of BHT present in the drug reservoir layer (spray coating step): about 61%
Compound: Cc1cc(C(C)(C)C)c(O)c(C(C)(C)C)c1 [BHT, butylated hydroxytoluene]
% Antioxidant (w/w, based on everolimus) in finished product (current XV process, 0.20% BHT initially provided in everolimus): approximately 0.044 % (w/w, based on everolimus)
